Data taken from the NIST ThermoML archive (doi:10.1021/acs.jced.7b00354).
Values joined by “and” are separate entries in the source; they are usually repeats but may differ in a detail not shown here. Equal values may be shown once.

Conditions: Transpiration method

O=C1C=CC(=O)C=C1 [1,4-benzoquinone]
Crystal
Conditions	vapor or sublimation pressure
290.2 K	0.01002 kPa
293.4 K	0.01343 kPa
297.5 K	0.02081 kPa
298.5 K	0.02319 kPa
301.4 K	0.03014 kPa
303.1 K	0.03408 kPa
307.3 K	0.05078 kPa
308.3 K	0.0527 kPa
310.2 K	0.06526 kPa
313.3 K	0.07951 kPa
314.1 K	0.08416 kPa
317.3 K	0.1098 kPa
320.1 K	0.1364 kPa
323 K	0.1783 kPa
323.3 K	0.1841 kPa
324.2 K	0.1861 kPa
327.2 K	0.2502 kPa and 0.2417 kPa
328.1 K	0.2659 kPa
330.3 K	0.3065 kPa
333.2 K	0.3846 kPa and 0.3832 kPa
334.2 K	0.4116 kPa
338.1 K	0.5504 kPa
338.2 K	0.5497 kPa and 0.5525 kPa

CC1=CC(=O)C=CC1=O [2,5-cyclohexadiene-1,4-dione, 2-methyl]
Conditions	vapor or sublimation pressure
282.2 K, Crystal	0.00318 kPa
285.6 K, Crystal	0.00523 kPa and 0.0051 kPa
286.8 K, Crystal	0.00566 kPa
288.5 K, Crystal	0.00664 kPa and 0.00678 kPa
290.8 K, Crystal	0.0091 kPa
295.2 K, Crystal	0.01426 kPa
300.4 K, Crystal	0.02498 kPa
305.3 K, Crystal	0.04235 kPa
310.2 K, Crystal	0.06335 kPa
312.9 K, Crystal	0.08525 kPa
315.2 K, Crystal	0.1054 kPa
317.9 K, Crystal	0.1305 kPa
320.1 K, Crystal	0.1774 kPa
322 K, Crystal	0.2004 kPa
325.1 K, Crystal	0.2769 kPa
327.8 K, Crystal	0.3444 kPa
330.1 K, Crystal	0.4336 kPa
331.6 K, Crystal	0.4466 kPa
332.1 K, Crystal	0.5012 kPa
335.2 K, Crystal	0.6342 kPa
336.7 K, Crystal	0.7271 kPa
343.2 K, Liquid	1.019 kPa
347.2 K, Liquid	1.264 kPa
351.2 K, Liquid	1.552 kPa
355.1 K, Liquid	1.947 kPa
356.8 K, Liquid	2.104 kPa
359.1 K, Liquid	2.373 kPa
363.1 K, Liquid	2.94 kPa
